Publication PMC9019100, “Development of NanoLuc-targeting protein degraders and a universal reporter system to benchmark tag-targeted degradation platforms” (Nature Communications, 2022)
“And” between values parts separate entries of the source, which are not always exact repeats. Equal entries are not always repeated. Where two headings read alike, the source gives them in different places.

Columns and labels:
MLKL-FKBP^F36V = MLKL-FKBP^F36V (Homo sapiens, UniProt P62942, F37V); type: cell-based; details: 5 h, low nM concentrations
Method: All experiments were repeated independently three times, and a representative Fig. is shown.
(§3) All timepoint experiments were performed as reverse timepoints in order to harvest all cells at the same time. At the indicated time points cells were lysed in NuPAGE LDS lysis buffer (Invitrogen) diluted to 1× in DISC lysis buffer (20 mM Tris-HCl pH7.5, 150 mM NaCl, 2 mM EDTA pH 8.0, 1% Triton X-100, 10% glycerol, H20)) supplemented with β-Mercaptoethanol (2%), protease and phosphatase inhibitors. Lysates were run through polypropylene columns (Pierce) to shred DNA. […] Membranes were blocked in 5% skim milk (Devondale) in TBS-T (TBS, 0.1% Tween-20) for 1 h prior to immunoblotting with primary antibodies overnight at 4 °C. Unless stated otherwise, all primary antibodies were diluted in TBS-T (TBS, 0.1% Tween-20) containing 5% BSA (Sigma A8022) and 0.04% sodium azide: HaloTag (1:1000, Promega; G9211), NanoLuc (1:500, Promega; N7000), β-actin (1:20,000, Sigma; A-1798), MLKL (1:1000, produced in-house; 3H1 clone)[39], FKBP (1:1000, R&D systems; 422513), caspase-8 (1:1000, Proteintech; 13423-1-AP), Histone H3 (1:1000, Abcam; ab10799), Cadherin (1:1000, Cell Signalling Technologies; 4068 T). Membranes were washed 3 × 5–10 min in TBS-T (TBS, 0.1% Tween-20) prior to the addition of the appropriate secondary antibodies conjugated with horseradish peroxidase (Jaxon laboratories). […]

Fibrillarin-FKBP^F36V = molecular target: T1, Fibrillarin-FKBP^F36V (Homo sapiens, UniProt P62942, F37V); type: cell-based; details: 500 nM, 10 h
T1 construct: endogenous in cells; host or cells: 293T, CRISPR/PITCh knock-in at the FBL locus

caspase-8-FKBP^F36V = molecular target: T2, caspase-8-FKBP^F36V (Homo sapiens, UniProt P62942, F37V); type: cell-based; details: 5 h
T2 construct: expressed in transfected cells; host or cells: MLKL-/-CASP8-/- HT29, constitutive expression

murine MLKL-FKBP^F36V = molecular target: T3, murine MLKL-FKBP^F36V (Homo sapiens, UniProt P62942, F37V); type: cell-based; details: 31.2-500 nM, 5 h
T3 construct: expressed in transfected cells; host or cells: Mlkl-/- mouse dermal fibroblasts, doxycycline-inducible
Method: as §3

Fibrillarin-NanoLuc = molecular target: T4, Fibrillarin-NanoLuc (Oplophorus gracilirostris, UniProt Q9GV45, A31E/A60N/A81I/F95D/I117V/K70R/L54V/L99Q/M102K/N193R/P142E/Q151K/Q38R/Q45L/V71I/Y165I); test: cell-based; details: HEK-293T; 500 nM, 10 h; read-out: Dmax (densitometry)
T4 construct: endogenous in cells; host or cells: 293T, CRISPR/PITCh knock-in at the FBL locus

MLKL-NanoLuc = molecular target: T5, MLKL-NanoLuc (Oplophorus gracilirostris, UniProt Q9GV45, A31E/A60N/A81I/F95D/I117V/K70R/L54V/L99Q/M102K/N193R/P142E/Q151K/Q38R/Q45L/V71I/Y165I); test: Western blot of MLKL^−/− HT29 cells expressing MLKL-NanoLuc; type: cell-based, human; details: 62.5-500 nM, 5 h
T5 construct: expressed in transfected cells; host or cells: MLKL-/- HT29 (A12); MLKL-/-CASP8-/- HT29 (A24); doxycycline-inducible
Method: (§1) Cells were seeded in 24-well plates ±doxycycline (20 ng/mL for HEK293T, 40 ng/mL for HT29) and incubated overnight (16–24 h) prior to degrader treatments, as stated in the Fig. legends. All timepoint experiments were performed as reverse timepoints in order to harvest all cells at the same time. At the indicated time points cells were lysed in NuPAGE LDS lysis buffer (Invitrogen) diluted to 1× in DISC lysis buffer (20 mM Tris-HCl pH7.5, 150 mM NaCl, 2 mM EDTA pH 8.0, 1% Triton X-100, 10% glycerol, H20)) supplemented with β-Mercaptoethanol (2%), protease and phosphatase inhibitors. Lysates were run through polypropylene columns (Pierce) to shred DNA. […] Membranes were blocked in 5% skim milk (Devondale) in TBS-T (TBS, 0.1% Tween-20) for 1 h prior to immunoblotting with primary antibodies overnight at 4 °C. Unless stated otherwise, all primary antibodies were diluted in TBS-T (TBS, 0.1% Tween-20) containing 5% BSA (Sigma A8022) and 0.04% sodium azide: HaloTag (1:1000, Promega; G9211), NanoLuc (1:500, Promega; N7000), β-actin (1:20,000, Sigma; A-1798), MLKL (1:1000, produced in-house; 3H1 clone)[39], FKBP (1:1000, R&D systems; 422513), caspase-8 (1:1000, Proteintech; 13423-1-AP), Histone H3 (1:1000, Abcam; ab10799), Cadherin (1:1000, Cell Signalling Technologies; 4068 T). […]
(§2) NC4. […] Cell death was assessed by flow cytometric analysis of PI exclusion. […]

[1] = tested on: MLKL^−/− HT29 cells expressing MLKL-NanoLuc; type: cell-based; details: for Live cells (%PI negative) after TNF+911+zVAD: MLKL-/- + MLKL NanoLuc, independent experiments
Method: Cell death was assessed by flow cytometric analysis of PI exclusion. […] Cell death was assessed by flow cytometric analysis of PI exclusion. […] Cell death was assessed by flow cytometric analysis of PI exclusion. e N = 4, f N = 3 independent experiments (symbols), EB represent mean ± SD. g Western from MLKL^−/−CASP8^−/− HT29 cells stably expressing the doxycycline-inducible C-terminal fusion protein, MLKL-NanoLuc (MLKL-NLuc) and constitutively expressing the C-terminal fusion protein caspase-8-FKBP^F36V. […] Cell death was assessed using an IncuCyte and Cytotox-Red uptake. N = 3 independent experiments, one representative experiment shown, EB represent mean ± SD.
Degrader compounds or a DMSO vehicle control were added for 5 h, as stated in the Fig. legends. Cells were detached using Trypsin-EDTA (Merck) and resuspended in cell supernatants containing 10 μg/mL propidium iodide (PI). PI exclusion analysis was performed using an LSR II flow cytometer (Becton Dickinson, NJ) with 10,000 single-cell events per sample. Flow cytometry data were analysed using WEASEL version 2.7 software (Frank Battye).

NanoLuc-SLC38A2 = molecular target: T6, NanoLuc-SLC38A2 (Oplophorus gracilirostris, UniProt Q9GV45, A31E/A60N/A81I/F95D/I117V/K70R/L54V/L99Q/M102K/N193R/P142E/Q151K/Q38R/Q45L/V71I/Y165I); test: Western blot of 293T cells expressing NanoLuc-SLC38A2; type: cell-based; details: 125-500 nM, 5 h
T6 construct: expressed in transfected cells; host or cells: 293T, doxycycline-induced
Method: as §1, §2

MLKL-NLuc = molecular target: T7, MLKL-NLuc (Oplophorus gracilirostris, UniProt Q9GV45, A31E/A60N/A81I/F95D/I117V/K70R/L54V/L99Q/M102K/N193R/P142E/Q151K/Q38R/Q45L/V71I/Y165I); type: cell-based; details: 5 h
T7 construct: expressed in transfected cells; host or cells: MLKL-/- HT29 (A12); MLKL-/-CASP8-/- HT29 (A24); doxycycline-inducible
T7 sequence (Q9GV45 other isoform, or with tags, fused parts or gaps with the stated changes): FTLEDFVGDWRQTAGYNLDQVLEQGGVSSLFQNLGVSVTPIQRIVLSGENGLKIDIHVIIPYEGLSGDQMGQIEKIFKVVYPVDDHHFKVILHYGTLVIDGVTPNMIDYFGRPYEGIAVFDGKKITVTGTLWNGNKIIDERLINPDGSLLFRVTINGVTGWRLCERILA

T3 sequence (P62942 whole entry F37V): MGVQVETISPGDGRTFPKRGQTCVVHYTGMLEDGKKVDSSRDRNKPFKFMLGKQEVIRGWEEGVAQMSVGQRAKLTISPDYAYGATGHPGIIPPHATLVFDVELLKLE
T2 sequence (P62942 whole entry F37V): as above
T1 sequence (P62942 whole entry F37V): as above
Chain of MLKL-FKBP^F36V (P62942 whole entry F37V): as above
T5 sequence (Q9GV45 other isoform, or with tags, fused parts or gaps with the stated changes): as the sequence (Q9GV45 other isoform, or with tags, fused parts or gaps with the stated changes) above
T6 sequence (Q9GV45 other isoform, or with tags, fused parts or gaps with the stated changes): as above
T4 sequence (Q9GV45 other isoform, or with tags, fused parts or gaps with the stated changes): as above

| Compound | MLKL-FKBP^F36V protein level by Western blot (MLKL-FKBP^F36V) | Dmax (densitometry) (Fibrillarin-FKBP^F36V) | depletion of caspase-8-FKBP^F36V (caspase-8-FKBP^F36V) | degradation of murine MLKL-FKBP^F36V (murine MLKL-FKBP^F36V) | Dmax at 0.5 µM (Fibrillarin-NanoLuc) [%] | degradation of MLKL-NanoLuc, comparison of NanoTACs (MLKL-NanoLuc) | effect on MLKL-NanoLuc-driven necroptosis ([1]; 5 h pre-treatment, then TSZ 24 h) | Live cells (%PI negative) after TNF+911+zVAD ([1]; 31.25nM) | Live cells (%PI negative) after TNF+911+zVAD ([1]; 62.5nM) | Live cells (%PI negative) after TNF+911+zVAD ([1]; 250nM) | Live cells (%PI negative) after TNF+911+zVAD ([1]; 500nM) | Live cells (%PI negative) after TNF+911+zVAD ([1]; 1000nM) | NanoLuc-SLC38A2 level by Western blot (NanoLuc-SLC38A2) | depletion of MLKL-NLuc (MLKL-NLuc) |
| --- | --- | --- | --- | --- | --- | --- | --- | --- | --- | --- | --- | --- | --- | --- |
| CC[C@H](C(=O)N1CCCC[C@H]1C(=O)O[C@H](CCc1ccc(OC)c(OC)c1)c1ccccc1OCC(=O)NCCCCCCC(=O)N[C@H](C(=O)N1C[C@H](O)C[C@H]1C(=O)N[C@@H](C)c1ccc(-c2scnc2C)cc1)C(C)(C)C)c1cc(OC)c(OC)c(OC)c1 [FV1] | no detectable protein | ~ 95.9% | could be depleted | comparable degradation | – | – | – | – | – | – | – | – | – | – |
| CCc1cccc(N(CC)C(=O)Cn2c(C(=O)NC3CCC(C(=O)NCCCCCCCC(=O)NCCCCNc4cccc5c4C(=O)N(C4CCC(=O)NC4=O)C5=O)CC3)cc3ccccc32)c1 (centres unmarked) [NC4] | – | – | – | – | ~52.9 | most effective degradation profile | sufficient to reduce MLKL-NanoLuc-driven necroptosis | 46.4 and 73.2 and 58.1 | 53.4 and 72.4 and 68.5 | 58.1 and 71.5 and 68.6 | 54.7 and 68.7 and 64.4 | 53.1 and 66.7 and 61.4 | reduction in Nanoluc-SLC38A2 | could be depleted |
